Measured values from ChEMBL document CHEMBL5576160, “N-Substituted Pyrrole-Based Heterocycles as Broad-Spectrum Filoviral Entry Inhibitors” (J Med Chem, 2024).

Assays:
[1] = test system: Ebolavirus; experiment: Antiviral activity against pseudotyped EBOV Mayinga infected in human A549 cells assessed as inhibition of Pseudoviral entry incubated for 40 hrs; type: functional, organism-based; details: Orthoebolavirus, A549, 40 h
[2] = Selectivity index, ratio of CC50 for cytotoxicity against human A549 cells to EC50 for antiviral activity against pseudotyped Marburgvirus Angola infected in human A549 cells assessed as inhibition of Pseudoviral entry; type: toxicity, cell-based; details: read-out: Ratio CC50/EC50
[3] = Selectivity index, ratio of CC50 for cytotoxicity against human A549 cells to EC50 for antiviral activity against pseudotyped EBOV Mayinga infected in human A549 cells assessed as inhibition of Pseudoviral entry; type: toxicity, cell-based; details: read-out: Ratio CC50/EC50
[4] = test system: Marburgvirus; experiment: Antiviral activity against pseudotyped Marburgvirus Angola infected in human A549 cells assessed as inhibition of Pseudoviral entry incubated for 40 hrs; type: functional, organism-based; details: Orthomarburgvirus, A549, 40 h
[5] = test system: A549; experiment: Cytotoxicity against human A549 cells assessed as as reduction in cell viability incubated for 48 hrs by celltiter-glo assay; type: functional
[6] = test system: Bundibugyo virus; experiment: Antiviral activity against pseudotyped Bundibugyo virus infected in human A549 cells assessed as inhibition of viral growth; type: functional, organism-based
[7] = test system: Tai Forest ebolavirus; experiment: Antiviral activity against pseudotyped Tai Forest ebolavirus infected in human A549 cells assessed as inhibition of viral growth; type: functional, organism-based
[8] = test system: Sudan ebolavirus; experiment: Antiviral activity against pseudotyped Sudan ebolavirus Gulu infected in human A549 cells assessed as inhibition of viral growth; type: functional, organism-based
[9] = test system: Marburgvirus; experiment: Antiviral activity against Marburgvirus Angola infected in human Huh-7 cells assessed as inhibition of viral replication; type: functional, organism-based; details: Orthomarburgvirus
[10] = test system: Ebolavirus; experiment: Antiviral activity against EBOV Mayinga infected in human HeLa cells assessed as inhibition of viral replication incubated for 40 hrs; type: functional, organism-based; details: Orthoebolavirus
[11] = test system: Sudan ebolavirus; experiment: Antiviral activity against pseudotyped Sudan ebolavirus Gulu infected in human HeLa cells assessed as inhibition of viral replication; type: functional, organism-based
[12] = Stability in mouse plasma measured after 60 mins; type: ADME, cell-free; details: read-out: Stability
[13] = Stability in human plasma measured after 60 mins; type: ADME, cell-free; details: read-out: Stability

SMILES | EC50 [1] | selectivity ratio [2] | selectivity ratio [3] | EC50 [4] | CC50 [5] | EC50 [6] | EC50 [7] | EC50 [8] | EC50 [9] | EC50 [10] | EC50 [11] | remaining at 1 h [12] | remaining at 1 h [13]
CN(C)C1CCN(C(=O)c2cc3ccccc3n2Cc2ccncc2)CC1 | 162 µM | 27 | > 6.2 | 3.78 µM |  |  |  |  |  |  |  |  | 
O=C(c1cc2sccc2n1Cc1ccc(Cl)cc1)N1CCN(C2CCCCC2)CC1 | 10.9 µM | 3.8 | 4.9 | 13.9 µM |  |  |  |  |  |  |  |  | 
CN(C)CCNC(=O)c1cc2occc2n1C | > 100 µM | 1 | 1 | > 100 µM |  |  |  |  |  |  |  |  | 
CC(C)N1CCN(C(=O)c2cc3occc3n2Cc2cccc(C(F)(F)F)c2)CC1 | 3.43 µM | 4.4 | 29 | 22.2 µM |  |  |  |  |  |  |  |  | 
O=C(c1cc2ccccc2n1Cc1ccccc1)N1CCCCC1 | 9.11 µM | 11 | 11 | > 100 µM |  |  |  |  |  |  |  |  | 
CN(C)C1CCN(C(=O)c2cc3occc3n2Cc2ccc(F)cc2)CC1 | 3.93 µM | > 8.8 | > 25 | 11.4 µM |  |  |  |  |  |  |  |  | 
O=C(Nc1ccc(N2CCOCC2)cc1)c1cc2occc2n1Cc1ccc(Cl)cc1 | > 100 µM | 1 | 1 | > 100 µM | > 100 µM |  |  |  |  |  |  |  | 
O=C(NCCCn1ccnc1)c1cc2occc2n1Cc1cccc(C(F)(F)F)c1 | 4.32 µM | 5.9 | 13 | 9.78 µM |  |  |  |  |  |  |  |  | 
CN(C)CCNC(=O)c1cn(Cc2ccccc2)c2ccccc12 | 3.28 µM | 6.1 | 21 | 11.1 µM |  |  |  |  |  |  |  |  | 
O=C(NCCN1CCC1)c1cc2occc2n1Cc1cccc(C(F)(F)F)c1 | 1.94 µM | 6.2 | 20 | 6.22 µM |  |  |  |  |  |  |  |  | 
CN(C)CCNC(=O)c1cc2sccc2n1Cc1ccc(Cl)cc1 | 2.17 µM | 13 | 19 | 3.14 µM |  |  |  |  |  |  |  |  | 
CN(C)CCNC(=O)c1cc2ccccc2n1Cc1ccc(Cl)cc1 | 3.49 µM | 7.5 | 8.4 | 3.92 µM |  | 2.66 µM | 3.74 µM | 0.834 µM |  |  |  |  | 
CN(C)CCNC(=O)c1cc2occc2n1Cc1ccc(Cl)c(C(F)(F)F)c1 | 1.9 µM | 10 | 17 | 3.16 µM |  |  |  |  |  |  |  |  | 
O=C(NCCCn1ccnc1)c1cc2occc2n1Cc1ccc(Cl)cc1 | 6.24 µM | 7.6 | 16 | 13.2 µM |  |  |  |  |  |  |  |  | 
CN(C)C1CCN(C(=O)c2cc3ccccc3n2Cc2ccc(F)cc2)CC1 | 0.453 µM | 13 | 100 | 4.99 µM |  | 0.353 µM | 2.7 µM | 0.554 µM | > 20 µM | > 20 µM | 1.01 µM |  | 
O=C(Nc1ccc(N2CCC(F)(F)CC2)cc1)c1cc2occc2n1Cc1ccc(Cl)cc1 | 11.7 µM | 1 | 8.6 | > 100 µM | > 100 µM | 36.4 µM | > 100 µM | 2.39 µM |  |  |  |  | 
CN1CCCN(C(=O)c2cc3sccc3n2Cc2ccc(Cl)cc2)CC1 | 4.16 µM | 9.3 | 24 | 10.8 µM |  |  |  |  |  |  |  |  | 
CN1CCN(C(=O)c2cc3sccc3n2Cc2ccc(Cl)cc2)CC1 | 9.75 µM | 4.1 | 10 | 24.7 µM |  |  |  |  |  |  |  |  | 
CN(C)CCNC(=O)c1cc2occc2n1C(=O)OCc1ccccc1 | 8.11 µM | > 3.1 | > 12 | 31.1 µM |  |  |  |  |  |  |  |  | 
CC1CCN(c2ccc(NC(=O)c3cc4occc4n3Cc3ccc(Cl)cc3)cc2C(F)(F)F)CC1 | 4.03 µM | 7.4 | 25 | 13.6 µM | > 100 µM |  |  |  |  |  |  |  | 
CN(C)C1CCN(C(=O)c2cn(Cc3ccc(F)cc3)c3ccccc23)CC1 | 2.54 µM | 6.9 | 30 | 10.9 µM |  |  |  |  |  |  |  |  | 
CN(C)CCNC(=O)c1cc2occc2n1Cc1cccc(C(F)(F)F)c1 | 1.68 µM | 13 | 32 | 4.29 µM |  |  |  |  |  |  |  |  | 
CN(C)C1CCN(C(=O)c2cc3ccccc3n2Cc2ccccc2)CC1 | 0.55 µM | 9.6 | ~180 | 9.53 µM | ~100 µM |  |  |  |  |  |  | 100% | 100%
CN(C)CC1CN(C(=O)c2cc3occc3n2Cc2ccc(Cl)cc2)C1 | 1.23 µM | 12 | 46 | 4.57 µM |  |  |  |  |  |  |  |  | 

SMILES | EC50 [1] | selectivity ratio [2] | selectivity ratio [3] | EC50 [4] | CC50 [5] | EC50 [6] | EC50 [7] | EC50 [8] | EC50 [9] | EC50 [10] | EC50 [11] | remaining at 1 h [12] | remaining at 1 h [13]
COc1ccc(Cn2c(C(=O)N3CCC(N(C)C)CC3)cc3ccccc32)cc1 | 0.543 µM | 13 |  | 7.84 µM | ~100 µM | 1.39 µM | 5.28 µM | 1.23 µM | 4.29 µM | 0.854 µM | ~20 µM |  | 
CN(C)C1CCN(C(=O)c2cc3ccccc3n2C)CC1 | 16.5 µM | < 1 | > 6.1 | > 100 µM |  |  |  |  |  |  |  |  | 
CN(C)CCNC(=O)c1cc2ccccc2n1Cc1ccc(-c2ccccc2)cc1 | 2.77 µM | 14 | 5.9 | 3.1 µM |  |  |  |  |  |  |  |  | 
CN(C)C1CCN(C(=O)c2cc3ccccc3n2Cc2cccnc2)CC1 | 5.3 µM | 2.6 | > 19 | 38.6 µM |  |  |  |  |  |  |  |  | 
CN(C)C1CCN(C(=O)c2cccn2Cc2ccccc2)CC1 | 1.11 µM | 5.6 | 90 | 17.8 µM |  |  |  |  |  |  |  |  | 
CCOc1ncc(NC(=O)c2cc3occc3n2Cc2ccc(Cl)cc2)cc1F | 2.43 µM | 1 | 41 | > 100 µM | > 100 µM |  |  |  |  |  |  |  | 
CN(C)CCNC(=O)c1cc2occc2n1Cc1ccccc1 | 4.51 µM | 3.9 | 22 | 25.6 µM |  |  |  |  |  |  |  |  | 
CN(C)CCNC(=O)c1cc2ccccc2n1Cc1ccccc1 | 2.74 µM | 9.5 | 24 | 6.8 µM |  |  |  |  |  |  |  |  | 
CN(C)CCNC(=O)c1cc2ccccc2n1Cc1ccc(F)cc1 | 3.39 µM | 8.9 | 16 | 4.21 µM |  |  |  |  |  |  |  |  | 
CCN(CC)CCNC(=O)c1cc2occc2n1Cc1ccc(Cl)cc1 | 1.61 µM | 17 | 38 | 3.67 µM |  |  |  |  |  |  |  |  | 
CN(C)C1CCN(C(=O)c2cc3sccc3n2Cc2ccc(Cl)cc2)CC1 | 0.899 µM | 15 | 61 | 3.7 µM |  | 1.9 µM | 4.14 µM | 1.01 µM |  |  |  |  | 
CN(C)CCNC(=O)c1cn(Cc2ccc(F)cc2)c2ccccc12 | 3 µM | 8.9 | 21 | 6.47 µM |  |  |  |  |  |  |  |  | 
CN(C)CCNC(=O)c1cc2occc2n1Cc1ccc(F)cc1 | 2.62 µM | > 93 | > 38 | 10.8 µM |  |  |  |  |  |  |  |  | 
CC(C)N1CCN(C(=O)c2cc3sccc3n2Cc2ccc(Cl)cc2)CC1 | 5.84 µM | 3.1 | 17 | 32.8 µM |  |  |  |  |  |  |  |  | 
CN(C)C1CCN(C(=O)c2cc3occc3n2C(=O)OCc2ccccc2)CC1 | 1.68 µM | > 3.4 | > 60 | 29.8 µM |  |  |  |  |  |  |  |  | 
CN1CCCN(C(=O)c2cc3occc3n2Cc2ccc(Cl)cc2)CC1 | 1.41 µM | 9.6 | 71 | 10.5 µM |  |  |  |  |  |  |  |  | 
CN(C)C1CCN(C(=O)CN(Cc2ccccc2)c2ccccc2)CC1 | 10.7 µM | < 1 | 9.4 | > 100 µM |  |  |  |  |  |  |  |  | 
CN1CCCN(C(=O)c2cc3occc3n2Cc2cccc(C(F)(F)F)c2)CC1 | 1.73 µM | 8.1 | 40 | 8.64 µM |  |  |  |  |  |  |  |  | 
CN(C)C1CCN(C(=O)c2cc3occc3n2Cc2cccc(C(F)(F)F)c2)CC1 | 1.5 µM | 10 | 67 | 9.72 µM | ~100 µM |  |  |  |  |  |  |  | 
CN(C)CCCNC(=O)c1cc2occc2n1Cc1ccc(Cl)cc1 | 2.01 µM | 13 | 36 | 5.52 µM |  |  |  |  |  |  |  |  | 
CN(C)C1CCN(C(=O)c2cc3ccccc3n2Cc2ccc(Cl)cc2)CC1 | 1.38 µM | < 1 | 44 | 6.83 µM |  |  | 4.95 µM | 0.884 µM |  |  |  |  | 
CN1CCN(CCCNC(=O)c2cc3occc3n2Cc2ccc(Cl)cc2)CC1 | 1.86 µM | 10 | 42 | 7.7 µM |  |  |  |  |  |  |  |  | 
CN(C)C1CCN(C(=O)c2cc3ccccc3n2Cc2ccc(-c3ccccc3)cc2)CC1 | 1.06 µM | 7.2 | 14 | 1.99 µM |  |  |  |  |  |  |  |  | 
